Columns and labels:
[1] = biological target: T1, Melanocortin receptor 3 (Homo sapiens, UniProt P41968); assay: Binding affinity to human MC3R
[2] = Plasma clearance in rat at 4 mg/kg, po; assay type: ADME, organism-based; parameters: dose 4 mg/kg, route oral
[3] = biological target: T2, Melanocortin receptor 5 (Homo sapiens, UniProt P33032); assay: Binding affinity to human MC5R
[4] = biological target: T3, Melanocortin receptor 4 (Homo sapiens, UniProt P32245); assay: Agonist activity at human MC4R expressed in CHO cells assessed as cAMP release; assay type: functional, cell-based
T3 sequence (P32245 whole entry): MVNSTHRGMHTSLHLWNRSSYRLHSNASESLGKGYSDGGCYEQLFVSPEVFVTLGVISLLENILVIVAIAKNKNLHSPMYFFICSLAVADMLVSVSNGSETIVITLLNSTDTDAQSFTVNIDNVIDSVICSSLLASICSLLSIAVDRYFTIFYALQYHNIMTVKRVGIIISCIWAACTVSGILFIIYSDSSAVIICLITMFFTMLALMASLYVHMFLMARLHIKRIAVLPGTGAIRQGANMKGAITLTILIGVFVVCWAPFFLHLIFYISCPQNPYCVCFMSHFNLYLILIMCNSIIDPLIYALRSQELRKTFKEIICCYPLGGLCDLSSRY

[5] = Oral bioavailability in Sprague-Dawley rat at 4 mg/kg; assay type: ADME, organism-based; conditions: in vivo
[6] = biological target: T3, Melanocortin receptor 4; assay: Displacement of [125I]NDP-alpha-MSH from human MC4R expressed in CHO cells; assay type: cell-based
[7] = biological target: T1, Melanocortin receptor 3; assay: Agonist activity at human MC3R expressed in CHO cells assessed as cAMP release at 10 uM relative to alpha-MSH; assay type: functional, cell-based
[8] = biological target: T2, Melanocortin receptor 5; assay: Agonist activity at human MC5R expressed in CHO cells assessed as cAMP release at 10 uM relative to alpha-MSH; assay type: functional, cell-based
[9] = biological target: T2, Melanocortin receptor 5; assay: Agonist activity at human MC5R expressed in CHO cells assesses as cAMP release; assay type: functional, cell-based
[10] = biological target: T3, Melanocortin receptor 4; assay: Agonist activity at human MC4R expressed in CHO cells assessed as cAMP release relative to alpha-MSH; assay type: functional, cell-based
[11] = Binding affinity to human MC1bR
[12] = biological target: T1, Melanocortin receptor 3; assay: Agonist activity at human MC3R expressed in CHO cells assessed as cAMP release; assay type: functional, cell-based
[13] = biological target: T3, Melanocortin receptor 4; assay: Agonist activity at human MC4R expressed in CHO cells assessed as cAMP release at 10 uM relative to alpha-MSH; assay type: functional, cell-based
[14] = biological target: Melanocortin receptor 4 (Rattus norvegicus) (UniProt P70596); assay: Agonist activity at rat MC4R expressed in CHO cells assessed as cAMP release at 10 uM relative to alpha-MSH; assay type: functional, cell-based
Chain of Melanocortin receptor 4 (Rattus norvegicus) (P70596 whole entry): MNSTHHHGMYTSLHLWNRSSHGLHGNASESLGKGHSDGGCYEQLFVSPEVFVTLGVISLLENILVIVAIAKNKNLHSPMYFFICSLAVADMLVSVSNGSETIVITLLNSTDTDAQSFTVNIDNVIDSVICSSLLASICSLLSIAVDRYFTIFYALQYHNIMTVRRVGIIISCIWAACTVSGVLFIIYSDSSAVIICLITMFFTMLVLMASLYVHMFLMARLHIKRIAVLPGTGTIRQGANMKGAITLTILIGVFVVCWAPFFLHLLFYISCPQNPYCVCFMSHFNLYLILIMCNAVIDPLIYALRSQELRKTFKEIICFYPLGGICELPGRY

[15] = biological target: T4, Melanocortin receptor 4 (Rattus norvegicus, UniProt P70596); assay: Binding affinity to rat MC4R
T4 sequence (P70596 whole entry): as above

[16] = Agonist activity at human MC1bR expressed in CHO cells assessed as cAMP release at 10 uM relative to alpha-MSH; assay type: functional
[17] = organism: Homo sapiens; assay: Selectivity for human MC4R over human MC3R
[18] = organism: Homo sapiens; assay: Selectivity for human MC4R over human MC1bR
[19] = Agonist activity at human MC1bR expressed in CHO cells assessed as cAMP release; assay type: functional, cell-based
[20] = biological target: T4, Melanocortin receptor 4; assay: Agonist activity at rat MC4R expressed in CHO cells assessed as cAMP release; assay type: functional, cell-based

T1 sequence (P41968 whole entry): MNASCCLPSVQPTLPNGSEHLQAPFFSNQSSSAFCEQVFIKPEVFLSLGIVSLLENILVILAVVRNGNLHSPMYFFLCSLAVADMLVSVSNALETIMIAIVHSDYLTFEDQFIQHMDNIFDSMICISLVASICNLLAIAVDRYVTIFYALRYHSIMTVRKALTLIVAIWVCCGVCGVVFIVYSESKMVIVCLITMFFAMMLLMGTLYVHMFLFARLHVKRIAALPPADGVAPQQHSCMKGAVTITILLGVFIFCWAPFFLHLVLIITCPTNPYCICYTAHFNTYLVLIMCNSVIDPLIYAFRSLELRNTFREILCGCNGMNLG
T2 sequence (P33032 whole entry): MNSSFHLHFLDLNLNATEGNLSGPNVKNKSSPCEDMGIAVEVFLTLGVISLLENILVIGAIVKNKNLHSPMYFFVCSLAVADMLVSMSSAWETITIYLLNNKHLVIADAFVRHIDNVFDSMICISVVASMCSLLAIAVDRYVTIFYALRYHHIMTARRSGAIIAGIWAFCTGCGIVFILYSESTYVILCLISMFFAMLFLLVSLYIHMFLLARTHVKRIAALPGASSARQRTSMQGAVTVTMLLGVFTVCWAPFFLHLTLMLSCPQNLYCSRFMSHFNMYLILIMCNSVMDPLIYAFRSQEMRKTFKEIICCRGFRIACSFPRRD

## CC[C@H](NC(C)=O)c1cc(Cl)ccc1C1CCN(C(=O)[C@@H]2CN(C(C)(C)C)C[C@H]2c2ccc(OC)cc2F)CC1
[1]
  IC50: 2960 nM
[2]
  CL/F: 66.4 mL/min/kg
[3]
  IC50: 205 nM
[4]
  EC50: 4.6 nM
[5]
  bioavailability: 3.8%
[6]
  IC50: 11.2 nM
[7]
  Activity: 91%
[8]
  Activity: 101%
[9]
  EC50: 167 nM
[10]
  %max: 100%
[11]
  IC50: 0.312 µM
[12]
  EC50: 157 nM

## CC[C@H](NC(C)=O)c1cc(Cl)ccc1C1CCN(C(=O)[C@H]2CN(C(C)(C)C)C[C@@H]2c2ccc(F)cc2F)CC1
[4]
  EC50: 565 nM
[6]
  IC50: 640 nM
[10]
  %max: 83%

## CC[C@H](NC(C)=O)c1cc(Cl)ccc1C1CCN(C(=O)[C@@H]2CN(C(C)(C)C)C[C@H]2c2ccc(C(F)(F)F)cc2F)CC1
[4]
  EC50: 88.8 nM
[6]
  IC50: 22.7 nM
[10]
  %max: 99%

## CC[C@H](NC(C)=O)c1cc(Cl)ccc1C1CCN(C(=O)[C@H]2CN(C(C)(C)C)C[C@@H]2c2ccc(Cl)cc2F)CC1
[4]
  EC50: 111 nM
[6]
  IC50: 13.2 nM
[10]
  %max: 45%

## CC[C@H](NC(C)=O)c1cc(Cl)ccc1C1CCN(C(=O)[C@H]2CN(C(C)(C)C)C[C@@H]2c2ccc(C(F)(F)F)cc2)CC1
[1]
  IC50: 3780 nM
[13]
  Activity: 1%
[2]
  CL/F: 5.6 mL/min/kg
[3]
  IC50: 450 nM
[5]
  bioavailability: 28%
[14]
  Activity: 15%
[15]
  IC50: 1 nM
[6]
  IC50: 7.8 nM
[7]
  Activity: 8%
[8]
  Activity: 11%
[16]
  Activity: 5%
[11]
  IC50: 16.4 µM

## CC[C@H](NC(C)=O)c1cc(Cl)ccc1C1CCN(C(=O)[C@H]2CN(C(C)(C)C)C[C@@H]2c2ccc(Cl)cc2Cl)CC1
[1]
  IC50: 4290 nM
[17]
  Ratio IC50: > 1000
[13]
  Activity: 1%
[2]
  CL/F: 11.4 mL/min/kg
[3]
  IC50: 245 nM
[5]
  bioavailability: 30.3%
[14]
  Activity: 6%
[18]
  Ratio IC50: > 6000
[15]
  IC50: 0.5 nM
[6]
  IC50: 3.3 nM
[7]
  Activity: 5%
[8]
  Activity: 10%
[9]
  EC50: 1600 nM
[16]
  Activity: 3%
[11]
  IC50: 20 µM

## CC[C@H](NC(C)=O)c1cc(Cl)ccc1C1CCN(C(=O)[C@H]2CN(C(C)(C)C)C[C@@H]2c2ccc(F)cc2Cl)CC1
[13]
  Activity: 10%
[6]
  IC50: 82.2 nM

## CC[C@H](NC(C)=O)c1cc(Cl)ccc1C1CCN(C(=O)[C@H]2CN(C(C)(C)C)C[C@@H]2c2ccc(Br)cc2F)CC1
[1]
  IC50: 2950 nM
[2]
  CL/F: 9.12 mL/min/kg
[19]
  EC50: 1060 nM
[3]
  IC50: 280 nM
[4]
  EC50: 13.4 nM
[5]
  bioavailability: 34.3%
[14]
  Activity: 44%
[15]
  IC50: 1.5 nM
[6]
  IC50: 4.1 nM
[20]
  EC50: 10.3 nM
[7]
  Activity: 38%
[8]
  Activity: 30%
[9]
  EC50: 455 nM
[16]
  Activity: 33%
[10]
  %max: 33%
[11]
  IC50: 174 µM
[12]
  EC50: 917 nM

## CC[C@H](NC(C)=O)c1cc(Cl)ccc1C1CCN(C(=O)[C@@H]2CN(C(C)(C)C)C[C@H]2c2cc(F)c(F)cc2F)CC1
[4]
  EC50: 130 nM
[6]
  IC50: 128 nM
[10]
  %max: 93%

## CC[C@H](NC(C)=O)c1cc(Cl)ccc1C1CCN(C(=O)[C@H]2CN(C(C)(C)C)C[C@@H]2c2cc(F)c(F)cc2F)CC1
[4]
  EC50: 3700 nM
[6]
  IC50: 101 nM
[10]
  %max: 50%

## CC[C@H](NC(C)=O)c1cc(Cl)ccc1C1CCN(C(=O)[C@@H]2CN(C(C)(C)C)C[C@H]2c2ccc(Cl)cc2F)CC1
[1]
  IC50: 1490 nM
[2]
  CL/F: 11.4 mL/min/kg
[19]
  EC50: 905 nM
[3]
  IC50: 129 nM
[4]
  EC50: 2.8 nM
[5]
  bioavailability: 24.3%
[14]
  Activity: 106%
[6]
  IC50: 6.2 nM
[20]
  EC50: 0.9 nM
[7]
  Activity: 92%
[8]
  Activity: 98%
[9]
  EC50: 372 nM
[16]
  Activity: 57%
[10]
  %max: 97%
[11]
  IC50: 1.34 µM
[12]
  EC50: 250 nM

## CC[C@H](NC(C)=O)c1cc(Cl)ccc1C1CCN(C(=O)[C@H]2CN(C(C)(C)C)C[C@@H]2c2ccc(C(F)(F)F)cc2F)CC1
[13]
  Activity: 5%
[6]
  IC50: 9.8 nM

## CC[C@H](NC(C)=O)c1cc(Cl)ccc1C1CCN(C(=O)[C@@H]2CN(C(C)(C)C)C[C@H]2c2ccc3ccccc3c2)CC1
[1]
  IC50: 12200 nM
[2]
  CL/F: 37.6 mL/min/kg
[3]
  IC50: 675 nM
[4]
  EC50: 120 nM
[5]
  bioavailability: 15%
[6]
  IC50: 76.2 nM
[7]
  Activity: 16%
[8]
  Activity: 35%
[9]
  EC50: 1230 nM
[16]
  Activity: 10%
[10]
  %max: 47%
[11]
  IC50: 6.59 µM

## CC[C@H](NC(C)=O)c1cc(Cl)ccc1C1CCN(C(=O)[C@@H]2CN(C(C)(C)C)C[C@H]2c2ccc(Br)cc2F)CC1
[1]
  IC50: 1050 nM
[2]
  CL/F: 7.3 mL/min/kg
[19]
  EC50: 274 nM
[3]
  IC50: 65.3 nM
[4]
  EC50: 2.1 nM
[5]
  bioavailability: 24.7%
[14]
  Activity: 94%
[15]
  IC50: 1.7 nM
[6]
  IC50: 4 nM
[20]
  EC50: 0.5 nM
[7]
  Activity: 88%
[8]
  Activity: 88%
[9]
  EC50: 102 nM
[16]
  Activity: 57%
[10]
  %max: 100%
[11]
  IC50: 0.695 µM
[12]
  EC50: 97.4 nM

## CC[C@H](NC(C)=O)c1cc(Cl)ccc1C1CCN(C(=O)[C@H]2CN(C(C)(C)C)C[C@@H]2c2ccc3ccccc3c2)CC1
[4]
  EC50: 1920 nM
[6]
  IC50: 528 nM
[10]
  %max: 57%

## CC[C@H](NC(C)=O)c1cc(Cl)ccc1C1CCN(C(=O)[C@@H]2CN(C(C)(C)C)C[C@H]2c2ccc(F)cc2Cl)CC1
[4]
  EC50: 215 nM
[6]
  IC50: 216 nM
[10]
  %max: 84%

## CC[C@H](NC(C)=O)c1cc(Cl)ccc1C1CCN(C(=O)[C@@H]2CN(C(C)(C)C)C[C@H]2c2ccc(F)cc2F)CC1
[4]
  EC50: 17.9 nM
[6]
  IC50: 70 nM
[10]
  %max: 108%

## CC[C@H](NC(C)=O)c1cc(Cl)ccc1C1CCN(C(=O)[C@H]2CN(C(C)(C)C)C[C@@H]2c2ccc(OC)cc2F)CC1
[4]
  EC50: 245 nM
[6]
  IC50: 37.2 nM
[10]
  %max: 34%

## CC[C@H](NC(C)=O)c1cc(Cl)ccc1C1CCN(C(=O)[C@@H]2CN(C(C)(C)C)C[C@H]2c2ccc(Cl)cc2Cl)CC1
[4]
  EC50: 156 nM
[6]
  IC50: 17.9 nM
[10]
  %max: 48%

## CC[C@H](NC(C)=O)c1cc(Cl)ccc1C1CCN(C(=O)[C@@H]2CN(C(C)(C)C)C[C@H]2c2ccc(C(F)(F)F)cc2)CC1
[4]
  EC50: 67.2 nM
[6]
  IC50: 28.1 nM
[10]
  %max: 90%

From ChEMBL document CHEMBL1143099, “Synthesis and SAR of potent and orally bioavailable tert-butylpyrrolidine archetype derived melanocortin subtype-4 receptor modulators” (Bioorg Med Chem Lett, 2008)
